{
  "source": "paper PMC8533485",
  "about": "(Biomedicines, 2021)",
  "key": {"MRSA": {"test_system": "MRSA", "assay": "Vancomycin MIC of patient isolates by ETEST", "assay_type": "cell-based, Staphylococcus aureus", "conditions": "isolates of individual patients"}, "MSSA": {"test_system": "MSSA", "assay": "Vancomycin MIC of patient isolates by ETEST", "assay_type": "cell-based, Staphylococcus aureus", "conditions": "isolates of individual patients"}, "[1]": {"test_system": "plasma proteins (mainly albumin)", "conditions": "cited from earlier work", "excerpt": "Currently, off-label use at high dosages for osteoarticular infections deserves attention. […] AUC0-1w/MIC and, partic ..."}, "[2]": {"test_system": "staphylococci and streptococci", "conditions": "in vivo", "description": "(§1) T > MIC was calculated based on the terminal t1/2 for each patient as a possible marker of the long-term prophylactic effect."}, "[3]": {"test_system": "plasma proteins (mainly albumin)", "conditions": "cited from earlier work", "remark": "listed apart in the source"}, "[4]": {"test_system": "staphylococci and streptococci", "assay": "PK/PD evaluation: observed PK versus EUCAST breakpoint MIC, adjusted by 93% protein binding", "conditions": "MIC 0.125 mg/L", "description": "as §1"}, "clinical": {"assay": "clinical", "conditions": "human, in vivo, iv"}, "[5]": {"conditions": "in vivo"}, "[6]": {"conditions": "ref [6],[7],[8]; cited from earlier work"}},
  "note": "Read-outs that look alike come from different tables or passages of the source.",
  "data": [
    {"smiles": "CN[C@H](CC(C)C)C(=O)N[C@H]1C(=O)N[C@@H](CC(N)=O)C(=O)N[C@H]2C(=O)N[C@H]3C(=O)N[C@H](C(=O)N[C@H](C(=O)O)c4cc(O)cc(O)c4-c4cc3ccc4O)[C@H](O)c3ccc(c(Cl)c3)Oc3cc2cc(c3O[C@@H]2O[C@H](CO)[C@@H](O)[C@H](O)[C@H]2O[C@H]2C[C@](C)(N)[C@H](O)[C@H](C)O2)Oc2ccc(cc2Cl)[C@H]1O", "note": "[Vancomycin, vancomycin]", "values": [
      {"measurement": "MIC for Vancom.", "setting": "MRSA", "value": 1, "unit": "µg/mL"},
      {"measurement": "MIC for Vancom.", "setting": "MSSA", "value": "≤0.5", "unit": "µg/mL"}
    ]},
    {"smiles": "CN[C@H]1C(=O)N[C@@H]2Cc3ccc(cc3)Oc3cc4cc(c3O[C@@H]3O[C@H](C(=O)O)[C@@H](O)[C@H](O)[C@H]3NC(=O)CCCCCCCCC(C)C)Oc3ccc(cc3Cl)[C@@H](O)[C@@H]3NC(=O)[C@H](NC(=O)[C@@H]4NC(=O)[C@@H](NC2=O)c2cc(cc(O)c2Cl)Oc2cc1ccc2O)c1ccc(O)c(c1)-c1c(O[C@H]2O[C@H](CO)[C@@H](O)[C@H](O)[C@@H]2O)cc(O)cc1[C@@H](C(=O)NCCCN(C)C)NC3=O", "note": "[DBV, Dalbavancin]", "values": [
      {"measurement": "binding to plasma proteins", "setting": "[1]", "value": 93, "unit": "%"},
      {"measurement": "AUC0-2w/MIC adjusted by 93% protein binding, all patients", "setting": "[2]; human", "value": "higher than 17,000"},
      {"measurement": "AUC0-2w/MIC relative to previously suggested cut-off of 1000 (for staphylococci)", "setting": "[2]", "value": "at least 8 folds"},
      {"measurement": "T > MIC in all patients", "setting": "[2]", "value": "higher than 6 weeks"},
      {"measurement": "binding to plasma proteins", "setting": "[3]", "value": "~98", "unit": "%"},
      {"measurement": "median AUC0-2w/MIC ratio", "setting": "[4]; dual dose regimen", "value": "31,366"},
      {"measurement": "median AUC0-2w/MIC ratio", "setting": "[4]; single dose regimen", "value": "20,590"},
      {"measurement": "half-life", "setting": "clinical", "value": 26.1, "unit": "days"},
      {"measurement": "half-life", "setting": "clinical; 1500 mg", "value": 21.9, "unit": "days"},
      {"measurement": "Cmax", "setting": "clinical; 1500 mg, C max", "value": 390, "unit": "µg/mL"},
      {"measurement": "t1/2 reached in multiphasic profile", "setting": "[5]", "value": "higher than 500 h"},
      {"measurement": "half-life (t1/2)", "setting": "[6]", "value": "around 9 days"}
    ]}
  ]
}
